# Assay results published in patent US20250263376A1, “(E)-N-CINNAMOYLAMINOALKANOLS WITH MELANOGENESIS INHIBITORY ACTIVITY” (Uniwersytet Jagiellonski, priority 2024, published 2025).
# Values joined by “and” are separate entries in the source; they are usually repeats but may differ in a detail not shown here. Equal entries are not always repeated.
# Tests used:
# [1] = tested on: S. typhimurium TA100; experiment: Ames microplate test, TA100; assay type: cell-based, Salmonella typhimurium; details: positive control 1.25 μg/mL, + S9
# [2] = tested on: S. typhimurium TA98; experiment: Ames microplate test, TA98; assay type: cell-based, Salmonella typhimurium; details: positive control 0.5 μg/mL, + S9
# Protocol: Bacteria were grown overnight in growth medium.
# [3] = tested on: S. typhimurium TA1535; experiment: Ames microplate test, TA1535; details: positive control 2.5 μg/mL, + S9;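 also: bacteria exposed 90 min at 37 °C in exposure medium, then 48 h in indicator medium in 384-well plates, yellow (revertant) wells counted per condition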
# Protocol: The study used the Ames microplate test (Ames MPF™ Penta 2 by Xenometrix, Allschwil, Switzerland). Growth medium, exposure medium, indicator medium, positive controls, hepatic microsomal fraction, NADP, glucose-6-phosphate, Salmonella typhimurium and Escherichia coli strains were components of the purchased experimental kit. Bacteria were grown overnight in growth medium. They were then exposed to the test compound at the appropriate concentration in exposure medium without or with the rat microsomal fraction S9 in 24-well plates for 90 min at 37° C. with shaking. Then, indicator medium was added to the wells and pipetted into 384-well plates, which were incubated for 48 hours at 37° C. without shaking. Results were assessed by counting the wells in which the medium turned yellow for each experimental condition.
# [4] = Lipophilicity coefficient RM0 by reversed phase thin layer chromatography; assay type: physicochemical; details: RP-18 TLC, methanol/phosphate buffer pH=7.4
# Protocol: Confirmation of the identity and purity of the obtained compounds consisted in the registration and interpretation of 1H NMR and 13C NMR spectra (the spectra were recorded using an ECZR 500 MHZ (JEOL) series FT-NMR spectrophotometer), as well as the registration and interpretation of LC-MS spectra (the spectra were recorded using Acquita UPLC system (Waters) coupled with a Waters TQD mass spectrometer). The melting point was measured using the open capillary method in the IA9300 device (Electrothermal). The lipophilicity coefficient RM0 was determined by reversed phase thin layer chromatography. In the study, aluminum plates 20×20 cm covered with modified silica gel RP-18 F254 (Merck) were used as the solid phase. The mobile phase consisted of solutions of methanol and 100 mM phosphate buffer (pH=7.4), characterized by a variable methanol content ranging from 95 to 65% (v/v). The tested compounds were dissolved in methanol to obtain solutions with a concentration of 1 mg/mL. Then, […] of the solutions prepared in this way were transferred to the starting line on aluminum plates, which were then placed in chromatographic chambers previously saturated with mobile phase vapors for at least 1 hour. All activities, including the development of chromatograms, were carried out at room temperature. After developing the chromatograms to approximately 1-2 cm from the end of the plate, the plates were dried and then the distance traveled by the tested compounds was visualized under UV light (λ=254 nm). The experiment was performed in duplicate for the specified conditions. For all samples, Rf was calculated according to the formula Rf=a/b, where a—the distance traveled by the tested compound, b—the distance traveled by the mobile phase. Then, the RM parameter was calculated for all samples according to the formula RM=log (1/Rf−1), obtaining a linear relationship between the RM values and the methanol concentration in the mobile phase. The log P coefficient was also calculated using the following computer programs: ACD/ChemSketch 2020.1.2 and ChemDraw 20.0.0.41.
# [5] = target: T1, tyrosinase from mushroom (Agaricus bisporus, UniProt C7FF04); experiment: Inhibition of commercial mushroom tyrosinase, substrate L-tyrosine; assay type: biochemical; details: 500 μM; read-out: Tyrosinase inhibition with L-tyrosine [%]
# Protocol: (§1) Studies on the Inhibition of the Activity of Commercial Tyrosinase from Mushroom (Sigma: T3824)
# (§2) The following substrates were used for the enzymatic reaction: L-tyrosine and L-3,4-dihyroxyphenylalanine (L-DOPA). Both substrates were used in independent experiments. According to the literature, the use of L-DOPA enables the assessment of tyrosinase diphenolase activity, and L-tyrosine—the tyrosinase monophenolase activity. The determinations were performed in 96-well plates, in each well there was placed: 170 μL or 127.5 μL of 50 mM phosphate buffer (pH=6.8) with tyrosinase (1U/well or 3U/well) and 10 μL of a solution of the tested compound in DMSO (the final concentration in the well was 500 μM, 250 μM or 125 μM). The negative control used 10 u L of pure solvent (DMSO). To initiate the reaction, an appropriate substrate was added: L-tyrosine (62.5 μL of solution in phosphate buffer) or L-DOPA (20 μL of solution in phosphate buffer). After a 25-minute incubation, the absorbance was measured at 475 nm using a microplate reader. The percentage of inhibition of tyrosinase activity was calculated using the formula: [(AC−AT)/[…], where AC—is the absorbance of the negative control, AT—is the absorbance of the sample containing the tested compound.
# [6] = tested on: B16-F10 murine melanoma cell line; experiment: Cytotoxicity (MTT) in B16-F10 murine melanoma cells; assay type: cell-based; details: 48 h
# Protocol: Cytotoxicity Assessment in the B16-F10 Murine Melanoma Cell Line (ATTC CRL-6745)—Preliminary Safety Assessment for Subsequent Studies
# In order to determine safe doses of compounds for testing the inhibition of melanogenesis in a murine melanoma cell line, cytotoxicity tests were performed. Cytotoxicity was determined by the colorimetric method using MTT ([3-(4,5-dimethyl-2-thiazolyl)-2,5-diphenyl-2H-tetrazolium bromide, Sigma M5655). For this purpose, cells were transferred to 96-well plates in an amount of 5000/well. After 24 h of culture in an incubator in F10-Ham medium with 1% FBS, the tested compounds at various concentrations were added to the wells together with fresh medium. DMSO was added to the medium in a negative control. The MTT test was performed after further culture for 48 h. Then the medium was removed and the formed formazan crystals were dissolved in DMSO. The absorbance was measured at 570 nm in a plate reader and the result was compared to the control (DMSO), which was 100%. The percentage of viability was calculated using the formula: [AT/AC*100], where AT is the absorbance of the test sample, AC—absorbance of the control sample.
# [7] = target: T1, tyrosinase from mushroom; experiment: Inhibition of commercial mushroom tyrosinase, substrate L-DOPA; assay type: biochemical; details: 500 μM; read-out: Tyrosinase inhibition with L-DOPA [%]
# Protocol: as §1, §2
# T1 sequence (C7FF04 2-392): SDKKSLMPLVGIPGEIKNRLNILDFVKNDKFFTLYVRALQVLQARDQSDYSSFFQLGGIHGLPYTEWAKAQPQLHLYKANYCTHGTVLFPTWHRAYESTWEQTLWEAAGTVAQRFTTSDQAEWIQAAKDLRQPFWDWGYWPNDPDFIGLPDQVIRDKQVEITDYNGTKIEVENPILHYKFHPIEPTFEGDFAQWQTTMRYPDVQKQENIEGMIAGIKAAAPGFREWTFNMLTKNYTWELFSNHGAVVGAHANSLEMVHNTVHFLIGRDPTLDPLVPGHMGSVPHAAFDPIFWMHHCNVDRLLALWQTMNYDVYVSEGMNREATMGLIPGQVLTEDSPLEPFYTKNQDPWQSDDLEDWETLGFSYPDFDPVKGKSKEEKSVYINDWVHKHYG
# T1 sequence (G1K3P4 entry or part of it, further chain): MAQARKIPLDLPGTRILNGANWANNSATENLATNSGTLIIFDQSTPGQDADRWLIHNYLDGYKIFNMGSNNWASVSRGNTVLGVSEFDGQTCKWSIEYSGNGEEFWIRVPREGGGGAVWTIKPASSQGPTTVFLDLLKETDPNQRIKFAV
SMILES,RM0 [4],inhibition at 500 µM [5],inhibition at 500 µM [7],"Increase in the number of yellow wells compared to the reference level, TA100 [1]","Increase in the number of yellow wells compared to the reference level, TA98 [2]","Increase in the number of yellow wells compared to the reference level, TA1535 [3]","Cytotoxicity study in B16F10 cells, % viability ([6]; 150 μM)","Cytotoxicity study in B16F10 cells, % viability ([6]; 200 μM)","Cytotoxicity study in B16F10 cells, % viability ([6]; 250 μM)","Cytotoxicity study in B16F10 cells, % viability ([6]; 12.5 μM)","Cytotoxicity study in B16F10 cells, % viability ([6]; 25 μM)","Cytotoxicity study in B16F10 cells, % viability ([6]; 50 μM)"
"Nc1ccc2cc3ccccc3cc2c1 [Compound 2-AA, 2-aminoanthracene, reference compound]",,,,4.00,24.00 and 15.03,,,,,,,
"Nc1c2ccccc2nc2ccccc12 [Compound 9-AA, reference compound]",,,,,,10.25 and 15.41,,,,,,
"CCC(CO)NC(=O)/C=C/c1ccc(Cl)cc1Cl (centres unmarked) [H-285/20, (2E)-3-(2,4-dichlorophenyl)-N-(1-hydroxybutan-2-yl)prop-2-enamide]",3.08,14.6 ± 1.63%,0.21 ± 5.64%,,,,84.2%,74.8%,24.6%,,,
"O=C(/C=C/c1ccc(Cl)cc1Cl)NCCCO [H-296/20, (2E)-3-(2,4-dichlorophenyl)-N-(3-hydroxypropyl)prop-2-enamide]",2.11,17.9 ± 7.36%,18.6 ± 1.67%,,,,67.0%,57.0%,38.3%,,,
"O=C(/C=C/c1ccc(Cl)cc1Cl)NCCCCCO [H-297/20, (2E)-3-(2,4-dichlorophenyl)-N-(5-hydroxypentyl)prop-2-enamide]",3.08,19.1 ± 2.53%,20.5 ± 2.84%,,,,102.3%,73.6%,88.5%,,,
"O=C(/C=C/c1ccc(Cl)cc1Cl)NCCCCO [H-298/20, (2E)-3-(2,4-dichlorophenyl)-N-(4-hydroxybutyl)prop-2-enamide]",2.78,20 ± 2.96%,11.2 ± 2.78%,,,,46.5%,40.6%,37.4%,,,
"O=C(/C=C/c1ccc(Cl)cc1Cl)N1CCC(O)CC1 [H-310/20, (2E)-3-(2,4-dichlorophenyl)-1-(4-hydroxypiperidin-1-yl)prop-2-en-1-one]",2.80,19.2 ± 3.44%,7.23 ± 0.81%,,,,89.5%,100.4%,93.0%,,,
"CCC(O)CNC(=O)/C=C/c1ccc(Cl)cc1Cl (centres unmarked) [H-320/21, (2E)-3-(2,4-dichlorophenyl)-N-(2-hydroxybutyl)prop-2-enamide]",3.08,24.4 ± 8.05%,5.8 ± 3.04%,,,,101.7%,90.8%,33.9%,,,
"O=C(/C=C/c1ccc(Cl)cc1)NCCCCO [H-331/21, (2E)-3-(4-chlorophenyl)-N-(4-hydroxybutyl)prop-2-enamide]",2.14,82.5 ± 0.87%,64.31 ± 0.21%,,,,32.7%,51.9%,52.7%,49.0%,47.8%,54.2%
"CCC(CO)NC(=O)/C=C/c1ccc(C)cc1 (centres unmarked) [H-409/21, (2E)-N-(1-hydroxybutan-2-yl)-3-(4-methylphenyl)prop-2-enamide]",2.49,15.3 ± 8.27%,21.8 ± 2.31%,,,,83.2%,95.3%,103.4%,,,
"Cc1ccc(/C=C/C(=O)NCCCO)cc1 [H-410/21, (2E)-N-(3-hydroxypropyl)-3-(4-methylphenyl)prop-2-enamide]",2.04,0.51 ± 5.4%,17 ± 5.66%,,,,88.8%,90.7%,79.8%,,,

# Continued, in another order:
RM0 [4],inhibition at 500 µM [5],inhibition at 500 µM [7],SMILES,"Increase in the number of yellow wells compared to the reference level, TA100 [1]","Increase in the number of yellow wells compared to the reference level, TA98 [2]","Increase in the number of yellow wells compared to the reference level, TA1535 [3]","Cytotoxicity study in B16F10 cells, % viability ([6]; 150 μM)","Cytotoxicity study in B16F10 cells, % viability ([6]; 200 μM)","Cytotoxicity study in B16F10 cells, % viability ([6]; 250 μM)","Cytotoxicity study in B16F10 cells, % viability ([6]; 12.5 μM)","Cytotoxicity study in B16F10 cells, % viability ([6]; 25 μM)","Cytotoxicity study in B16F10 cells, % viability ([6]; 50 μM)"
2.43,61.8 ± 0.4%,44 ± 2.6%,"CCC(CO)NC(=O)/C=C/c1ccc(Cl)cc1 (centres unmarked) [Compound A-01, (2E)-3-(4-chlorophenyl)-N-(1-hydroxybutan-2-yl)prop-2-enamide]",,,,73.6%,93.2%,85.4%,,,
1.60,35.5 ± 1.37%,34.5 ± 4.18%,"O=C(/C=C/c1ccccc1)NCCCCO [Compound A-43, (2E)-N-(4-hydroxybutyl)-3-phenylprop-2-enamide]",,,,108.9%,105.7%,103.2%,,,
2.39,30.2 ± 10.2%,21.2 ± 1.26%,"CCC(O)CNC(=O)/C=C/c1ccc(C)cc1 (centres unmarked) [Compound A-63, (2E)-N-(2-hydroxybutyl)-3-(4-methylphenyl)prop-2-enamide]",,,,90.2%,87.3%,87.4%,,,
2.17,4.4 ± 7.15%,23 ± 6.64%,"Cc1ccc(/C=C/C(=O)NC(C)CO)cc1 (centres unmarked) [Compound A-69, (2E)-N-(1-hydroxypropan-2-yl)-3-(4-methylphenyl)prop-2-enamide]",,,,96.6%,101.3%,97.5%,,,
2.27,75.1 ± 1.6%,,"O=C(/C=C/c1ccc(Cl)cc1)N1CCC(O)CC1 [Compound A-99, (2E)-3-(4-chlorophenyl)-1-(4-hydroxypiperidin-1-yl)prop-2-en-1-one]",,,,109.8%,102.6%,96.6%,,,
2.76,57.6 ± 2.11%,41.2 ± 0.81%,"CC(C)C(CO)NC(=O)/C=C/c1ccc(Cl)cc1 (centres unmarked) [Compound A-106, (2E)-3-(4-chlorophenyl)-N-(1-hydroxy-3-methylbutan-2-yl)prop-2-enamide]",,,,85.9%,88.1%,72.6%,,,
